Source: patent US20200247812A1 (Integral Biosciences Private Limited, priority 2018, published 2020)

Biological target: T1, ALK 5 (Homo sapiens, UniProt P36897)
T1 sequence (P36897 34-503): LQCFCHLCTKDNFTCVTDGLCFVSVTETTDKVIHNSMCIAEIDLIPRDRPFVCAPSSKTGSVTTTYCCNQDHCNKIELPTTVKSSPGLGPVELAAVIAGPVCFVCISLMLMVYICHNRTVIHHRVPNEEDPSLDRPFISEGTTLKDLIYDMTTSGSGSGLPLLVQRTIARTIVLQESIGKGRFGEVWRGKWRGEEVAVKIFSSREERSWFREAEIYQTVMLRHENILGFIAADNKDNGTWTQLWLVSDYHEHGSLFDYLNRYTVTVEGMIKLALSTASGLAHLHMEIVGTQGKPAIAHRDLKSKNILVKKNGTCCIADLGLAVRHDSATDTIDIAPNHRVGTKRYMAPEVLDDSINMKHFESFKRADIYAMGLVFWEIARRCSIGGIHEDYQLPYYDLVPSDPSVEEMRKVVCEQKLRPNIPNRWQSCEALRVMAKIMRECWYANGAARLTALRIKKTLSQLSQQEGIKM
Assay: In vitro kinase assay (ALK5 IC50, LanthaScreen Terbium labeled TR-FRET)
Type: biochemical
Conditions: TGF-β kinase 6 nM, ATP 10 μM, read-out: Enzyme Activity ALK 5 IC50
Procedure: Compounds of the invention were screened in an in vitro kinase assay against ALK 5, a members of the TGF-β family of Ser/Thr kinases. Standard kinase testing conditions and techniques were employed. IC50 values of compounds against TGF-ß kinase was determined by LanthaScreen™ Terbium Labeled TR-FRET assay. Kinase assays were performed in 1X kinase buffer (# PV6135, Invitrogen, Life Technologies Grand Island, N.Y.) where total reaction volume was 10 μL in low-volume 384-well plates (#4511, Corning). Serially diluted compounds (3-fold) were incubated with TGF-β kinase (6 nM) for 10 min, following which a mixture of ATP (10 μM) (# A1852, Sigma, St-Louis, Mo.) and fluorescent-PolyGT substrate (200 nM); Cat # PV3610, Invitrogen, Life Technologies Grand Island, N.Y.) was added and incubated in dark at room temperature for 1 h. After 1 h, 10 μL stop solution containing Terbium labeled antibody (4 nM; Cat # PV3529, Invitrogen, Life Technologies Grand Island, N.Y.) and EDTA (# E5134, Sigma, St-Louis, Mo.; 20 mM) in TR-FRET dilution buffer (Cat # PV3574, Invitrogen, Life Technologies Grand Island, N.Y.) was added. Readings were taken in a Synergy Neo Plate reader (BioTek, Winooski) at single excitation of 340 nm and Dual emission at 495 nm and 520 nm respectively.
The % activity of test samples was calculated as (Sample-Min)×100/(Max −Min). [Max: DMSO control, complete reaction with enzyme with DMSO and Min: No enzyme with DMSO]. Percent inhibition (100-% activity) was fitted to the “four-parameter logistic model” in XLfit for determination of IC50 values.

| IC50 [nM] | Compound |
| --- | --- |
| > 5000 | CC(C)c1[nH]c(=O)c(-c2cc(Cl)ccc2F)cc1Nc1ccnc(NC(=O)CN2CCOCC2)c1 [Compound 1.65, N-(4-((5-(5-chloro-2-fluorophenyl)-2-isopropyl-6-oxo-1,6-dihydropyridin-3-yl)amino)pyridin-2-yl)-2-morpholinoacetamide] |
| > 5000 | C[C@@H](O)CNC(=O)c1cnccc1Nc1cc(-c2cc(Cl)ccc2F)c(=O)n2c1N(C)CCC2 [Compound 1.26, (R)-4-((7-(5-chloro-2-fluorophenyl)-1-methyl-6-oxo-1,3,4,6-tetrahydro-2H-pyrido[1,2-a]pyrimidin-9-yl)amino)-N-(2-hydroxypropyl)nicotinamide] |
| > 5000 | CN(C)c1[nH]c(=O)c(-c2cc(Cl)ccc2F)cc1Nc1ccncc1C#N [Compound 1.34, 4-((5-(5-chloro-2-fluorophenyl)-2-(dimethylamino)-6-oxo-1,6-dihydropyridin-3-yl)amino)nicotinonitrile] |
| ≤ 500 | O=c1[nH]c(C2CC2)c(Nc2ccnc3ccncc23)cc1-c1cc(Cl)ccc1F [Compound 1.67, 5-((1,6-naphthyridin-4-yl)amino)-3-(5-chloro-2-fluorophenyl)-6-cyclopropylpyridin-2(1H)-one] |
| 2000 to 5000 | CN(C)c1[nH]c(=O)c(-c2cc(Cl)ccc2F)cc1Nc1ccnc2ccncc12 [Compound 1.37, 5-((1,6-naphthyridin-4-yl)amino)-3-(5-chloro-2-fluorophenyl)-6-(dimethylamino)pyridin-2(1H)-one] |
| ≤ 500 | CC(=O)Nc1cc(Nc2cc(-c3ccc(F)c(Cl)c3)c(=O)[nH]c2C(C)C)ccn1 [Compound 1.58, N-(4-((5-(3-chloro-4-fluorophenyl)-2-isopropyl-6-oxo-1,6-dihydropyridin-3-yl)amino)pyridin-2-yl)acetamide] |
| 2000 to 5000 | CC(C)c1[nH]c(=O)c(-c2cc(Cl)ccc2F)cc1Nc1ccnc(NC2CC2)c1 [Compound 1.55, 3-(5-chloro-2-fluorophenyl)-5-((2-(cyclopropylamino)pyridin-4-yl)amino)-6-isopropylpyridin-2(1H)-one] |
| > 5000 | CC(=O)Nc1cc(Nc2cc(-c3cc(Cl)c(C)cc3F)c(=O)[nH]c2C(C)C)ccn1 [Compound 1.64, N-(4-((5-(5-chloro-2-fluoro-4-methylphenyl)-2-isopropyl-6-oxo-1,6-dihydropyridin-3-yl)amino)pyridin-2-yl)acetamide] |
| > 5000 | CC(C)c1[nH]c(=O)c(-c2cc(Cl)ccc2F)cc1Nc1ccnc(NC(=O)CCC(F)(F)F)c1 [Compound 1.46, N-(4-((5-(5-chloro-2-fluorophenyl)-2-isopropyl-6-oxo-1,6-dihydropyridin-3-yl)amino)pyridin-2-yl)-4,4,4-trifluorobutanamide] |
| ≤ 500 | CCc1[nH]c(=O)c(-c2cc(Cl)ccc2F)cc1Nc1ccnc2ccncc12 [Compound 1.71, 5-((1,6-naphthyridin-4-yl)amino)-3-(5-chloro-2-fluorophenyl)-6-ethylpyridin-2(1H)-one] |
| ≤ 500 | COc1[nH]c(=O)c(-c2cc(Cl)ccc2F)cc1Nc1ccnc2[nH]ccc12 [Compound 1.76, 5-((1H-pyrrolo[2,3-b]pyridin-4-yl)amino)-3-(5-chloro-2-fluorophenyl)-6-methoxypyridin-2(1H)-one] |
| ≤ 500 | CC(C)c1[nH]c(=O)c(-c2cc(Cl)ccc2F)cc1Nc1ncnc2c1CC(=O)N2 [Compound 1.78, 4-((5-(5-chloro-2-fluorophenyl)-2-isopropyl-6-oxo-1,6-dihydropyridin-3-yl)amino)-5,7-dihydro-6H-pyrrolo[2,3-d]pyrimidin-6-one] |
| 2000 to 5000 | CC(C)c1[nH]c(=O)c(-c2cc(Cl)ccc2F)cc1Nc1ccnc2ccncc12 [Compound 1.42, 5-((1,6-naphthyridin-4-yl)amino)-3-(5-chloro-2-fluorophenyl)-6-isopropylpyridin-2(1H)-one] |
| > 5000 | C[C@H](CO)NC(=O)c1cnccc1Nc1cc(-c2cc(Cl)ccc2F)c(=O)n2c1N(C)CCC2 [Compound 1.25, (R)-4-((7-(5-chloro-2-fluorophenyl)-1-methyl-6-oxo-1,3,4,6-tetrahydro-2H-pyrido[1,2-a]pyrimidin-9-yl)amino)-N-(1-hydroxypropan-2-yl)nicotinamide] |
| 500 to 2000 | C[C@@H](CO)NC(=O)c1cnccc1Nc1cc(-c2cc(Cl)ccc2F)c(=O)n2c1N(C)CCC2 [Compound 1.21, (S)-4-((7-(5-chloro-2-fluorophenyl)-1-methyl-6-oxo-1,3,4,6-tetrahydro-2H-pyrido[1,2-a]pyrimidin-9-yl)amino)-N-(1-hydroxypropan-2-yl)nicotinamide] |
| 2000 to 5000 | CC(O)CNC(=O)c1cnccc1Nc1c[nH]c(=O)c(-c2cc(Cl)ccc2F)c1 (stereo not shown) [Compound 1.1, 4-((5-(5-chloro-2-fluorophenyl)-6-oxo-1,6-dihydropyridin-3-yl)amino)-N-(2-hydroxypropyl)nicotinamide] |
| 500 to 2000 | CC(=O)Nc1cc(Nc2cc(-c3cccc(C#N)c3)c(=O)[nH]c2C(C)C)ccn1 [Compound 1.54, N-(4-((5-(3-cyanophenyl)-2-isopropyl-6-oxo-1,6-dihydropyridin-3-yl)amino)pyridin-2-yl)acetamide] |
| > 5000 | CC(=O)Nc1cc(Nc2cc(-c3ccc(F)nc3)c(=O)[nH]c2C(C)C)ccn1 [Compound 1.51, N-(4-((6′-fluoro-6-isopropyl-2-oxo-1,2-dihydro-[3,3′-bipyridin]-5-yl)amino)pyridin-2-yl)acetamide] |
| ≤ 500 | CC(=O)Nc1cc(Nc2cc(-c3ccc(F)c(C)c3)c(=O)[nH]c2C(C)C)ccn1 [Compound 1.83, N-(4-((5-(4-fluoro-3-methylphenyl)-2-isopropyl-6-oxo-1,6-dihydropyridin-3-yl)amino)pyridin-2-yl)acetamide] |
| > 5000 | CN(C)c1[nH]c(=O)c(-c2cc(Cl)ccc2F)cc1Nc1ccncc1C(=O)NC(C)(C)CO [Compound 1.31, 4-((5-(5-chloro-2-fluorophenyl)-2-(dimethylamino)-6-hydroxypyridin-3-yl)amino)-N-(1-hydroxy-2-methylpropan-2-yl)nicotinamide] |
| ≤ 500 | COc1[nH]c(=O)c(-c2cc(Cl)ccc2F)cc1Nc1ccnc(NC(C)=O)c1 [Compound 1.75, N-(4-((5-(5-chloro-2-fluorophenyl)-2-methoxy-6-oxo-1,6-dihydropyridin-3-yl)amino)pyridin-2-yl)acetamide] |
| ≤ 500 | CNC(=O)c1cnccc1Nc1cc(-c2cc(Cl)ccc2F)c(=O)[nH]c1C1CC1 [Compound 1.68, 4-((5-(5-chloro-2-fluorophenyl)-2-cyclopropyl-6-oxo-1,6-dihydropyridin-3-yl)amino)-N-methylnicotinamide] |
